Measurements as given in patent US20080014278A1, “METAL-CONTAINING FORMULATIONS AND METHODS OF USE” (priority 2006, published 2008).

Assays:
[1] = test system: Mycobacterium tuberculosis H37Ra; assay type: cell-based
[2] = test system: Klebsiella pneumoniae; experiment: MIC assay (microdilution); assay type: cell-based
[3] = test system: Prot. mirabilis; experiment: Minimal bactericidal concentration (MBC) assay; assay type: cell-based, Proteus mirabilis; conditions: Prot. mirabilis NP405
Experimental: (§1) Minimal bactericidal concentration (MBC) assay—Overnight-grown MIC plates, prepared as described in Example 16, were evaluated to determine the MIC. Culture was then sampled from wells at and near the MIC using sterile inoculating loops, and transferred to fresh MHA plates to determine if viable bacteria remained. […] The MBC was determined as the well in the MIC plate which contained the lowest concentration of silver yielding no bacterial growth on the MHA plate.

[4] = test system: Staph epidermidis; experiment: Minimal bactericidal concentration (MBC) assay; assay type: cell-based, Staphylococcus epidermidis
Experimental: as §1

[5] = test system: Burkholderia multivorans; experiment: MIC assay (microdilution); assay type: cell-based
[6] = test system: Ser. marcescens; experiment: Minimal bactericidal concentration (MBC) assay; assay type: cell-based, Serratia marcescens
Experimental: as §1

[7] = test system: Burkholderia dolosa; experiment: MIC assay (microdilution); assay type: cell-based
[8] = test system: Citrobacter freundii; experiment: MIC assay (microdilution); assay type: cell-based; conditions: C. freundii NP410
[9] = test system: Streptococcus pneumoniae; experiment: MIC assay (microdilution); assay type: cell-based; conditions: lactate solutions, nanocrystalline silver: range for 12 samples
[10] = test system: Proteus mirabilis; experiment: MIC assay (microdilution); assay type: cell-based; conditions: Prot. mirabilis NP405
[11] = test system: Pseudomonas aeruginosa; experiment: MIC assay (microdilution); assay type: cell-based
[12] = test system: B. multivorans; experiment: Minimal bactericidal concentration (MBC) assay; assay type: cell-based, Burkholderia multivorans
Experimental: as §1

[13] = test system: Ps. aeruginosa; experiment: Minimal bactericidal concentration (MBC) assay; assay type: cell-based, Pseudomonas aeruginosa
Experimental: as §1

[14] = test system: Staph. aureus; experiment: Minimal bactericidal concentration (MBC) assay; assay type: cell-based, Staphylococcus aureus
Experimental: as §1

[15] = test system: B dolosa; experiment: Minimal bactericidal concentration (MBC) assay; assay type: cell-based, Burkholderia dolosa
Experimental: as §1

[16] = test system: Serratia marcescens; experiment: MIC assay (microdilution); assay type: cell-based
[17] = test system: Escherichia coli; experiment: MIC assay (microdilution); assay type: cell-based
[18] = test system: C. freundii; experiment: Minimal bactericidal concentration (MBC) assay; assay type: cell-based, Citrobacter freundii; conditions: C. freundii NP410
Experimental: as §1

[19] = test system: K. pneumoniae; experiment: Minimal bactericidal concentration (MBC) assay; assay type: cell-based, Klebsiella pneumoniae
Experimental: as §1

[20] = test system: Enterobacter cloacae; experiment: MIC assay (microdilution); assay type: cell-based; conditions: Enterobacter cloacae
[21] = test system: Streptococcus pyogenes; experiment: MIC assay (microdilution); assay type: cell-based
[22] = test system: Staphylococcus aureus; experiment: MIC assay (microdilution); assay type: cell-based
[23] = test system: E. coli; experiment: Minimal bactericidal concentration (MBC) assay; assay type: cell-based, Escherichia coli
Experimental: as §1

[24] = test system: Strep. pyogenes; experiment: Minimal bactericidal concentration (MBC) assay; assay type: cell-based, Streptococcus pyogenes
Experimental: as §1

[25] = test system: Staphylococcus epidermidis; experiment: MIC assay (microdilution); assay type: cell-based
[26] = K. pneumoniae NP403, second entry
[27] = Ser. marcescens NP402, second entry
[28] = Ser. marcescens NP408, second entry

How did the MIC [1] turn out when `O=[N+]([O-])[O-].[Ag+]` [AgNO3, silver nitrate] was run?
Its MIC is 2.5 μg/ml silver.

What about the MIC ([2]; K. pneumoniae NP401) of the same compound?
Its MIC is 3 parts silver per million.

And the MIC ([2]; K. pneumoniae NP403)?
Its MIC is 6 parts silver per million.

What about the MIC [2, 26] of the same compound?
Its MIC is 6 parts silver per million.

And the MIC ([2]; K. pneumoniae NP406)?
The MIC was 1 parts silver per million.

What about the MIC ([2]; Klebsiella pneumoniae, aerobic +) of the same compound?
The MIC was 3 µg/mL.

And the MIC ([2]; Klebsiella pneumoniae, aerobic − (anaerobic))?
The MIC was 3 µg/mL.

And the MBC [3]?
Its MBC is 13 parts silver per million.

And the MBC ([4]; Staph epidermidis 12228)?
Its MBC is 3 parts silver per million.

And the MBC ([4]; Staph epidermidis NP136)?
Its MBC is 3 parts silver per million.

And the MIC ([5]; B. multivorans B1)?
The MIC was 3 parts silver per million.

And the MIC ([5]; B. multivorans B2)?
Its MIC is 3 parts silver per million.

What about the MIC ([5]; B. multivorans B4) of the same compound?
The MIC was 2 parts silver per million.

What about the MBC ([6]; Ser. marcescens NP402) of the same compound?
Its MBC is 6 parts silver per million.

And the MBC [6, 27]?
Its MBC is 6 parts silver per million.

And the MBC ([6]; Ser. marcescens NP408)?
Its MBC is 6 parts silver per million.

And the MBC [6, 28]?
The MBC was 11 parts silver per million.

What about the MIC ([7]; B dolosa A3) of the same compound?
Its MIC is 2 parts silver per million.

And the MIC ([7]; B dolosa A4)?
Its MIC is 2 parts silver per million.

What about the MIC [8] of the same compound?
Its MIC is 3 parts silver per million.

And the MIC ([9]; S. pneumo (clin 314))?
Its MIC is 11 µg/mL.

What about the MIC ([9]; S. pneumo (clin 315)) of the same compound?
Its MIC is 21 µg/mL.

And the MIC [10]?
Its MIC is 6 parts silver per million.

What about the MIC ([11]; P. aeruginosa NP212, formulation type Lactate) of the same compound?
Its MIC is 2 ppm.

And the MIC ([11]; P. aeruginosa NP212, formulation type Water/Lecithin)?
Its MIC is 3 ppm.

What about the MIC ([11]; P. aeruginosa NP212, formulation type Water/PVA) of the same compound?
Its MIC is 3 ppm.

What about the MIC ([11]; P. aeruginosa NP213, Lactate) of the same compound?
Its MIC is 1 ppm.

And the MIC ([11]; P. aeruginosa NP213, Water/Lecithin)?
Its MIC is 1 ppm.

What about the MIC ([11]; P. aeruginosa NP213, Water/PVA) of the same compound?
Its MIC is 1 ppm.

What about the MIC ([11]; P. aeruginosa NP214, Lactate) of the same compound?
The MIC was 1 ppm.

What about the MIC ([11]; P. aeruginosa NP214, Water/Lecithin) of the same compound?
The MIC was 1 ppm.

What about the MIC ([11]; P. aeruginosa NP214, Water/PVA) of the same compound?
Its MIC is 3 ppm.

And the MIC ([11]; Ps. aeruginosa 9027)?
The MIC was 1 parts silver per million.

And the MIC ([11]; Ps. aeruginosa 27317)?
Its MIC is 2 parts silver per million.

And the MIC ([11]; Ps. aeruginosa NP201)?
Its MIC is 1 parts silver per million.

And the MIC ([11]; Ps. aeruginosa NP204)?
The MIC was 1 parts silver per million.

What about the MIC ([11]; Ps. aeruginosa NP206) of the same compound?
The MIC was 1 parts silver per million.

What about the MIC ([11]; lactate solutions, P. aerug (ATCC), nanocrystalline silver: range for 12 samples) of the same compound?
The MIC was 3 µg/mL.

And the MIC ([11]; lactate solutions, P. aerug. (clin.), nanocrystalline silver: range for 12 samples)?
The MIC was 3 µg/mL.

And the MBC ([12]; B. multivorans B1)?
Its MBC is 3 parts silver per million.

What about the MBC ([12]; B. multivorans B2) of the same compound?
Its MBC is 3 parts silver per million.

And the MBC ([12]; B. multivorans B4)?
Its MBC is 3 parts silver per million.

What about the MBC ([13]; Ps. aeruginosa 27317) of the same compound?
Its MBC is 3 parts silver per million.

And the MBC ([13]; Ps. aeruginosa NP201)?
Its MBC is 3 parts silver per million.

And the MBC ([13]; Ps. aeruginosa NP204)?
Its MBC is 3 parts silver per million.

And the MBC ([13]; Ps. aeruginosa NP206)?
The MBC was 1 parts silver per million.

What about the MBC ([14]; Staph. aureus 6538) of the same compound?
Its MBC is 6 parts silver per million.

What about the MBC ([14]; Staph. aureus 700699) of the same compound?
Its MBC is 6 parts silver per million.

And the MBC ([14]; Staph. aureus NP101)?
Its MBC is 11 parts silver per million.

What about the MBC ([14]; Staph. aureus NP102) of the same compound?
The MBC was 6 parts silver per million.

And the MBC ([14]; Staph. aureus NP103)?
Its MBC is 6 parts silver per million.

What about the MBC ([15]; B dolosa A3) of the same compound?
Its MBC is 3 parts silver per million.

And the MBC ([15]; B dolosa A4)?
The MBC was 2 parts silver per million.

And the MIC ([16]; Ser. marcescens NP402)?
Its MIC is 6 parts silver per million.

And the MIC [16, 27]?
Its MIC is 6 parts silver per million.

What about the MIC ([16]; Ser. marcescens NP408) of the same compound?
The MIC was 6 parts silver per million.

And the MIC [16, 28]?
The MIC was 11 parts silver per million.

And the MIC ([16]; Serratia marcescens, aerobic +)?
The MIC was 6 µg/mL.

And the MIC ([16]; Serratia marcescens, aerobic − (anaerobic))?
The MIC was 13 µg/mL.

And the MIC ([17]; E. coli 8739)?
The MIC was 0.4 parts silver per million.

And the MIC ([17]; E. coli 43745)?
The MIC was 1 parts silver per million.

What about the MIC ([17]; E. coli NP412) of the same compound?
The MIC was 1 parts silver per million.

What about the MIC ([17]; lactate solutions, E. coli (ATCC), nanocrystalline silver: range for 12 samples) of the same compound?
Its MIC is 3 µg/mL.

What about the MBC [18] of the same compound?
Its MBC is 3 parts silver per million.

What about the MBC ([19]; K. pneumoniae NP401) of the same compound?
Its MBC is 3 parts silver per million.

And the MBC ([19]; K. pneumoniae NP403)?
The MBC was 6 parts silver per million.

And the MBC [19, 26]?
Its MBC is 3 parts silver per million.

And the MBC ([19]; K. pneumoniae NP406)?
The MBC was 1 parts silver per million.

What about the MIC ([20]; aerobic +) of the same compound?
Its MIC is 13 µg/mL.

What about the MIC ([20]; aerobic − (anaerobic)) of the same compound?
The MIC was 25 µg/mL.

And the MIC ([21]; Strep. pyogenes NP303)?
Its MIC is 3 parts silver per million.

And the MIC ([21]; Strep. pyogenes NP304)?
Its MIC is 6 parts silver per million.

What about the MIC ([21]; Strep. pyogenes NP306) of the same compound?
Its MIC is 6 parts silver per million.

What about the MIC ([21]; lactate solutions, S. pyog (clin. 303), nanocrystalline silver: range for 12 samples) of the same compound?
Its MIC is 3 µg/mL.

And the MIC ([21]; lactate solutions, S. pyog (clin. 304), nanocrystalline silver: range for 12 samples)?
The MIC was 5 µg/mL.

And the MIC ([22]; Staph aureus NP101, Lactate)?
Its MIC is 9 ppm.

And the MIC ([22]; Staph aureus NP101, Water/Lecithin)?
Its MIC is 11 ppm.

What about the MIC ([22]; Staph aureus NP101, Water/PVA) of the same compound?
The MIC was 11 ppm.

What about the MIC ([22]; Staph aureus NP102, Lactate) of the same compound?
The MIC was 9 ppm.

What about the MIC ([22]; Staph aureus NP102, Water/Lecithin) of the same compound?
Its MIC is 11 ppm.

What about the MIC ([22]; Staph aureus NP102, Water/PVA) of the same compound?
The MIC was 11 ppm.

What about the MIC ([22]; Staph aureus NP103, Lactate) of the same compound?
Its MIC is 9 ppm.

And the MIC ([22]; Staph aureus NP103, Water/Lecithin)?
The MIC was 11 ppm.

What about the MIC ([22]; Staph aureus NP103, Water/PVA) of the same compound?
Its MIC is 11 ppm.

What about the MIC ([22]; Staph. aureus 6538) of the same compound?
The MIC was 6 parts silver per million.

And the MIC ([22]; Staph. aureus 700699)?
Its MIC is 3 parts silver per million.

What about the MIC ([22]; Staph. aureus NP101) of the same compound?
The MIC was 6 parts silver per million.

What about the MIC ([22]; Staph. aureus NP102) of the same compound?
Its MIC is 6 parts silver per million.

And the MIC ([22]; Staph. aureus NP103)?
Its MIC is 6 parts silver per million.

What about the MIC ([22]; lactate solutions, S. aureus (ATCC), nanocrystalline silver: range for 12 samples) of the same compound?
Its MIC is 11 µg/mL.

What about the MIC ([22]; lactate solutions, S. aureus (clin.), nanocrystalline silver: range for 12 samples) of the same compound?
The MIC was 5 µg/mL.

What about the MBC ([23]; E. coli 8739) of the same compound?
Its MBC is 0.4 parts silver per million.

What about the MBC ([23]; E. coli 43745) of the same compound?
Its MBC is 0.4 parts silver per million.

And the MBC ([23]; E. coli NP412)?
Its MBC is 1 parts silver per million.

What about the MBC ([24]; Strep. pyogenes NP303) of the same compound?
Its MBC is 10 parts silver per million.

What about the MBC ([24]; Strep. pyogenes NP304) of the same compound?
The MBC was 21 parts silver per million.

And the MBC ([24]; Strep. pyogenes NP306)?
Its MBC is 21 parts silver per million.

What about the MIC ([25]; Staph epidermidis 12228) of the same compound?
The MIC was 3 parts silver per million.

What about the MIC ([25]; Staph epidermidis NP136) of the same compound?
Its MIC is 3 parts silver per million.

And the MIC ([25]; lactate solutions, S. epiderm (ATCC), nanocrystalline silver: range for 12 samples)?
Its MIC is 3 µg/mL.
